Like-named read-outs stand apart in the source and are kept apart here.
Legend:
[1] = cited from earlier work
[2] = format: in vivo, human; conditions: for AUC(0-inf): human, plasma, AUCinf, GM (CV%), total AUCinf; for distribution of exposure (AUCinf, Cmax) across Child-Pugh classifications: subjects with normal NCIc, box plots Figures 2A, 3
[3] = Child-Pugh mild and moderate HI
[4] = any degree of HI based on Child-Pugh

Row | Compound | effect of HI on sunitinib exposure (AUCinf and Cmax) versus normal [1, 3] | AUC(0-inf) ([2]; Child-Pugh mild HI group) [ng·h/mL] | AUC(0-inf) ([2]; Child-Pugh moderate HI group) [ng·h/mL] | AUC(0-inf) ([2]; NCIc mild group) [ng·h/mL] | AUC(0-inf) ([2]; NCIc moderate group) [ng·h/mL] | AUC(0-inf) ([2]; NCIc normal group) [ng·h/mL] | mean fraction unbound in plasma ([1]; across Child-Pugh hepatic function groups) | unbound AUCinf of mild group compared with normal hepatic function ([2]; via either classification (Child-Pugh or NCIc)) | effect of HI on axitinib exposure (Cmax and AUCinf) versus normal ([1]; Child-Pugh mild HI) | higher AUCinf (exposure) compared with normal ([1]; Child-Pugh moderate HI) [fold] | distribution of exposure (AUCinf, Cmax) across Child-Pugh classifications [2] | effect of HI on dacomitinib exposure versus normal [1, 3] | exposure (AUCinf and Cmax) of mild and moderate groups compared with normal hepatic function ([2]; based on either classification system (Child-Pugh or NCIc)) | AUC(0-inf) ([2]; NCIc severe group) [ng·h/mL] | higher exposure compared with normal hepatic function [1, 4] [fold] | plasma elimination half-life compared with normal hepatic function [1, 4] | higher AUCinf compared with normal NCIc hepatic function ([2]; NCIc mild HI) [%] | AUC(0-inf) ([2]; Child-Pugh severe HI group) [ng·h/mL] | AUCinf in Child-Pugh mild HI compared with Child-Pugh normal ([2]; within subjects with normal NCI hepatic function) [fold]
1 | CCN(CC)CCNC(=O)c1c(C)[nH]c(/C=C2\C(=O)Nc3ccc(F)cc32)c1C [Sunitinib, sunitinib] | did not alter | 1510 | 1480 | 1690 | 1530 | 1340 |  |  |  |  |  |  |  |  |  |  |  |  | 
2 | CC(=O)c1c(C)c2cnc(Nc3ccc(N4CCNCC4)cn3)nc2n(C2CCCC2)c1=O [Palbociclib, palbociclib] |  |  |  |  |  |  | increased with worsening hepatic function | overall similar |  |  |  |  |  |  |  |  |  |  | 
3 | CNC(=O)c1ccccc1Sc1ccc2c(/C=C/c3ccccn3)n[nH]c2c1 [Axitinib, axitinib] |  | 122 | 304 | 210 | 410 | 137 |  |  | did not affect | 2 | appeared similar |  |  |  |  |  |  |  | 
4 | COc1cc2ncnc(Nc3ccc(F)c(Cl)c3)c2cc1NC(=O)/C=C/CN1CCCCC1 [Dacomitinib, dacomitinib] |  | 811 | 682 | 753 | 583 | 800 |  |  |  |  |  | did not alter | similar | 685 |  |  |  |  | 
5 | COc1cc(Nc2c(C#N)cnc3cc(OCCCN4CCN(C)CC4)c(OC)cc23)c(Cl)cc1Cl [Bosutinib, bosutinib] |  | 1940 | 1730 | 1580 | 1860 | 1130 |  |  |  |  | higher exposure |  |  | 1350 | ~2 | longer | 40 | 1660 | ~2

From publication PMC7754409 (Journal of Clinical Pharmacology, 2020)
